{
  "source": "paper PMC12048343",
  "about": "“Discovery of a small molecule secreted clusterin enhancer that improves memory in Alzheimer’s disease mice” (npj Drug Discovery, 2025)",
  "system": "3xTg-AD murine model of AD",
  "assay": "Chronic 6-week oral study in 3xTg-AD mice (hippocampus biomarkers, proteomics)",
  "format": "in vivo, mouse",
  "conditions": "oral 15 mg/kg BID, 6 weeks, vs vehicle",
  "method": "Brain tissue was homogenized and diluted to a protein concentration of 50 ng/mL. The Mouse Clusterin ELISA Kit (Cat#ab199079, Abcam) was performed according to the manufacturer’s protocol.\nHippocampal tissue was sonicated in TPER buffer containing 1x protease and phosphatase inhibitors (Fisher catalog # 78429) on ice. Samples were centrifuged at 16000xg for 10 min at 4 degrees C. A BCA protein quantification assay was performed on each sample in duplicate. Aliquots of 40 uL were stored in the -80 freezer.\nA sample of brain homogenate (8.8 mg/mL) was tested at 10 dilutions using the Tau AlphaLISA (Revvity Cat#AL271C) (32, 64, 128, 256, 512, 1024, 2048, 4096, 8192, 16384-fold) and, separately, the anti-tau phosphor AT8 and S396 (Fisher catalogs MN1020B and 44-752 G, respectively) antibodies (2, 4, 8, 16, 32, 64, 128, 256, 512, 1024-fold). AlphaLISA assays were by loading 2 µL of the anti-tau acceptor bead mixed with anti-tau or anti-ptau biotinylate antibodies in the 384-well plate, then 2 uL sample was loaded and incubated for 1 h at room temperature. AlphaScreen Streptavidin Donor beads (2 µL, Cat#6760002S, Perkin Elmer) were added, incubated for an additional 30 minutes in the dark, and the plate was read in an Envision plate reader.\nAdditional assays: The Aβ1-42 ELISA assay was performed on hippocampus brain homogenate according to the manufacturer’s protocol (Fisher KHB3441). Humanin in cell culture lysate was quantify by ELISA assay, according to the manufacturer’s protocol (MyBioSourc Cat# MBS7607247). SirT1 in cell culture lysate was quantify using AlphaLISA. Cell lysate (2 μL) was added to a 384-well proxy plate preloaded with 2 µL anti-SiRT1 antibody mixture (ABCAM catalog AB110304, biotinylated (10 nM) and ABCAM catalog AB104833, acceptor bead conjugated (50 µg/mL, Cat#6772001, Perkin Elmer)) was added and incubated at room temperature for 1 hour. AlphaScreen Streptavidin Donor beads (2 µL, Cat#6760002S, Perkin Elmer) were added, incubated for an additional 30 min in the dark, and the plate was read in an Envision plate reader.\nAll procedures were performed in accordance with protocols approved by the UCLA Institutional Animal Care and Use Committee (IACUC) and guidelines of the NIH. Mouse strains used were C57BL/6 J (Black 6, Jackson Laboratory; JAX stock #000564). All non-AD mice were 4 to 5 mo old at the time of the experiments. […]",
  "data": [
    {"smiles": "Cc1sc2c(c1C)C(c1ccc(Cl)cc1)=N[C@@H](CC(=O)OC1CC1)c1nnc(C)n1-2", "note": "[DDL-357]", "values": [
      {"measurement": "reduction of tau phosphorylation at Ser396 (p-tau/total tau)", "setting": "hippocampus", "value": "significant"},
      {"measurement": "tau phosphorylation at Ser202/Thr205 (p-tau/total tau)", "setting": "hippocampus", "value": "lower, but not significantly so"},
      {"measurement": "Aβ1-42 levels in brain", "value": "the differences were not significant"},
      {"measurement": "sCLU levels in brain", "value": "the differences were not significant"}
    ]}
  ]
}
